According to publication PMC7216583 (Parasites & Vectors, 2020):
Structures can show the parent of a compound that is named as a salt. Where two headings read alike, the source gives them in different places.

Legend:
in vitro = conditions: human
[1] = tested on: Toxoplasma gondii RH-2F tachyzoites; test: microbe, parasite or virus in culture; conditions: 72 h; for inhibition at 5 µM: read-out: Parasite inhibition (%) Mean ± SD
[2] = read-out: Parasite inhibition (%) mean, preliminary screen, mean
[3] = read-out: Parasite inhibition (%) mean, preliminary screen of compound library, mean
[4] = read-out: Parasite inhibition (%) mean

SMILES	inhibition of growth at 5 µM [1, 2] [%]	inhibition of growth at 5 µM [1, 3] [%]	other results
CC[C@]12C=CCN3CCC4(c5cc([C@@]6(C(=O)OC)C[C@H]7C[C@@H](C(C)(F)F)CN(Cc8c6[nH]c6ccccc86)C7)c(OC)cc5N(C)[C@H]4[C@@](O)(C(=O)OC)[C@@H]1OC(C)=O)C32 (stereo in doubt) [Vinflunine Tartrate]	83.2	–	viability (in vitro): 60.8%
CC1(C)CCC(CN2CCN(c3ccc(C(=O)NS(=O)(=O)c4ccc(NCC5CCOCC5)c([N+](=O)[O-])c4)c(Oc4cnc5[nH]ccc5c4)c3)CC2)=C(c2ccc(Cl)cc2)C1 [ABT-199 (GDC-0199 )]	–	70.8	viability at 72 h (in vitro; Host viability (%) mean): 25.4%
CNC1CCCN(c2c(F)cc3c(=O)c(C(=O)O)cn(C4CC4)c3c2OC)C1 (centres unmarked) [Balofloxacin]	–	71.8	viability at 72 h (in vitro; Host viability (%) mean): 76.4%
CCN1CCN(c2cc(-c3ccc(F)cc3)c3c(n2)CCCCCC3)CC1 [Blonanserin, reference compound]	–	–	viability at 72 h, 5 µM (in vitro; Host viability (%) Mean ± SD): 88.3 ± 5.9%; inhibition at 5 µM [1]: 82.1 ± 3.1%
CN(C)c1ccc(-c2nc3c(N4CCN(CC(=O)Nc5nccs5)CC4)c(Cl)cnc3[nH]2)cc1 [CCT129202]	85.6	–	viability at 72 h (in vitro; Host viability (%) mean): 42.6%
CC(C)C[C@@H](C(=O)N[C@H](C(=O)OC1CCCC1)c1ccccc1)[C@H](O)C(=O)NO [CHR2797, reference compound]	–	–	viability at 72 h, 5 µM (in vitro; Host viability (%) Mean ± SD): 88.8 ± 6.7%; inhibition at 5 µM [1]: 85.6 ± 1.8%
C[C@@H](Oc1cc(-c2cnn(C3CCNCC3)c2)cnc1N)c1c(Cl)ccc(F)c1Cl [Crizotinib (PF-02341066)]	86.8	–	viability (in vitro): 43.6%
CN1CCC(=C2c3ccccc3C=Cc3ccccc32)CC1 [Cyproheptadine HCl (Periactin)]	–	–	viability at 72 h (in vitro; uninfected human foreskin fibroblasts (HFFs), Host viability (%) mean, preliminary screen, mean): 90.6%
CN1CCC(=C2c3ccccc3C=Cc3ccccc32)CC1 [Cyproheptadine HCl, reference compound]	–	–	viability at 72 h, 5 µM (in vitro; Host viability (%) Mean ± SD): 90.6 ± 1.2%
Nc1ccccc1NC(=O)c1ccc(CNC(=O)OCc2cccnc2)cc1 [Entinostat (MS-275, SNDX-275)]	75.7	–	viability at 72 h (in vitro; Host viability (%) mean): 81.6%
Nc1ccccc1NC(=O)c1ccc(CNC(=O)OCc2cccnc2)cc1 [Entinostat, reference compound]	–	–	viability at 72 h, 5 µM (in vitro; Host viability (%) Mean ± SD): 81.6 ± 1.5%; inhibition at 5 µM [1]: 75.7 ± 2.2%
Oc1cc(O)c(Cl)cn1 [Gimeracil]	70.8	–	viability at 72 h (in vitro; Host viability (%) mean): 75.6%
CNC(=O)c1ccc(-c2cnc3ncc(Cc4ccc5ncccc5c4)n3n2)cc1F [INCB28060]	–	89.8	viability (in vitro): 46.3%
O=C(C[S+]([O-])Cc1ccco1)NC/C=C\COc1cc(CN2CCCCC2)ccn1 (centres unmarked) [Lafutidine, reference compound]	–	–	viability at 72 h, 5 µM (in vitro; Host viability (%) Mean ± SD): 92.7 ± 5.6%; viability at 72 h (in vitro; Host viability (%) mean): 92.7%; inhibition at 5 µM [1]: 70.6 ± 2.5%
C[C@]1(O)C[C@@H](c2nc(-c3ccc4ccc(-c5ccccc5)nc4c3)c3c(N)nccn32)C1 [Linsitinib (OSI-906)]	78.8	–	viability at 72 h (in vitro; Host viability (%) mean): 72.2%
O=C1CCC[C@@H]2[C@@H]3CCCN4CCC[C@H](CN12)[C@@H]34 [Matrine ((+)-Matrine)]	–	78.7	viability at 72 h (in vitro; uninfected human foreskin fibroblasts (HFFs)): 19.6%
Cc1cccc(C(C)c2cnc[nH]2)c1C (centres unmarked) [Medetomidine HCl, reference compound]	–	–	viability (in vitro): 90.5%; viability at 5 µM (in vitro): 90.5 ± 4.4%; inhibition at 5 µM [1]: 70.8 ± 1.5%
Nc1ccccc1NC(=O)c1ccc(CNc2nccc(-c3cccnc3)n2)cc1 [Mocetinostat (MGCD0103)]	86.5	–	viability at 72 h (in vitro; Host viability (%) mean): 80.2%
Nc1ccccc1NC(=O)c1ccc(CNc2nccc(-c3cccnc3)n2)cc1 [Mocetinostat, reference compound]	–	–	viability at 72 h, 5 µM (in vitro; Host viability (%) Mean ± SD): 80.2 ± 3.8%; inhibition at 5 µM [1]: 86.5 ± 3.1%
CN(C)Cc1c(C(=O)NCCOc2ccc(C(=O)NO)cc2)oc2ccccc12 [PCI-24781]	82.7	–	viability at 72 h (in vitro; Host viability (%) mean): 33.8%
OCCn1cc(-c2cnc3nnn(Cc4ccc5ncccc5c4)c3n2)cn1 [PF-04217903]	–	–	viability at 72 h (in vitro): 65%; inhibition of growth at 5 µM [1, 4]: 88.6%
NCCC(O)(P(=O)(O)O)P(=O)(O)O [Pamidronate disodium, reference compound]	–	–	viability at 72 h (in vitro): 80.8%; viability at 72 h, 5 µM (in vitro): 80.8 ± 1.4%; inhibition at 5 µM [1]: 79.6 ± 1.5%

SMILES	inhibition of growth at 5 µM [1, 2] [%]	inhibition of growth at 5 µM [1, 3] [%]	other results
Nc1nc2[nH]cc(CCc3ccc(C(=O)N[C@@H](CCC(=O)O)C(=O)O)cc3)c2c(=O)[nH]1 [Pemetrexed disodium, reference compound]	–	–	viability at 72 h, 5 µM (in vitro): 84.6 ± 1.5%
C=C[C@H]1C[N@@]2CC[C@H]1C[C@H]2[C@H](O)c1ccnc2ccc(OC)cc12 [Quinine hydrochloride dihydrate]	–	78.9	viability (in vitro): 79.4%
C[C@H](Cc1cc2c(c(C(N)=O)c1)N(CCCO)CC2)NCCOc1ccccc1OCC(F)(F)F [Silodosin (Rapaflo)]	47.9	–	–
N[C@@H](CC(=O)N1CCn2c(nnc2C(F)(F)F)C1)Cc1cc(F)c(F)cc1F [Sitagliptin phosphate monohydrate]	–	1.1	–
O=C(O)C(O)Cc1ccc(O)c(O)c1 (centres unmarked) [Sodium Danshensu]	–	2.2	–
O=S(=O)(O)Oc1ccc(C(c2ccc(OS(=O)(=O)O)cc2)c2ccccn2)cc1 [Sodium Picosulfate]	–	0.3	–
CCCC(=O)[O-].[Na+] [Sodium butyrate]	–	23.1	–
CNC(=O)c1cc(Oc2ccc(NC(=O)Nc3ccc(Cl)c(C(F)(F)F)c3)cc2)ccn1 [Sorafenib (Nexavar)]	55.5	–	–
OC[C@@H](O)[C@@H](O)[C@H](O)[C@@H](O)CO [Sorbitol (Glucitol)]	–	-66.9	–
CC(=O)NS(=O)(=O)c1ccc(N)cc1 [Sulfacetamide Sodium]	–	0.9	–
CNCC(O)c1ccc(O)cc1 (centres unmarked) [Synephrine HCl]	–	3.7	–
CCc1nc(-c2cccc(C)c2)c(-c2ccnc(NC(=O)c3ccccc3)c2)s1 [TAK 715]	–	22.5	–
Nc1nc(N)c2nc(-c3cccc(O)c3)c(-c3cccc(O)c3)nc2n1 [TG100-115]	9.5	–	–
Cc1cnc(Nc2ccc(OCCN3CCCC3)cc2)nc1Nc1cccc(S(=O)(=O)NC(C)(C)C)c1 [TG101348 (SAR302503)]	–	8.5	–
Clc1ccccc1C(c1ccccc1)(c1ccccc1)n1cccn1 [TRAM-34]	2.6	–	–
CCOC(=O)c1ccc(C#Cc2ccc3c(c2)C(C)(C)CCS3)nc1 [Tazarotene (Avage)]	–	-0.7	–
Cc1cn([C@@H]2C[C@@H](O)[C@H](CO)O2)c(=O)[nH]c1=O [Telbivudine (Sebivo, Tyzeka)]	–	12.9	–
CCOC(=O)[C@H](CCc1ccccc1)N[C@H]1CS[C@H](c2cccs2)CN(CC(=O)O)C1=O [Temocapril HCl]	31.7	–	–
C[C@H](Cn1cnc2c(N)ncnc21)OCP(=O)(O)O [Tenofovir (Viread)]	0	–	–
CC(C)OC(=O)OCOP(=O)(CO[C@H](C)Cn1cnc2c(N)ncnc21)OCOC(=O)OC(C)C [Tenofovir Disoproxil Fumarate]	0.5	–	–
CC(S)C(=O)NCC(=O)O (centres unmarked) [Tiopronin (Thiola)]	–	0.9	–
C[N+]1(C)[C@@H]2C[C@@H](OC(=O)C(O)(c3cccs3)c3cccs3)C[C@H]1[C@@H]1O[C@@H]12 [Tiotropium Bromide hydrate]	–	-0.7	–

SMILES	inhibition of growth at 5 µM [1, 2] [%]	inhibition of growth at 5 µM [1, 3] [%]	other results
COc1cc2nccc(Oc3ccc(NC(=O)Nc4cc(C)on4)c(Cl)c3)c2cc1OC [Tivozanib (AV-951)]	-5.5	–	–
C[C@H]1CCN(C(=O)CC#N)C[C@@H]1N(C)c1ncnc2[nH]ccc12 [Tofacitinib (CP-690550, Tasocitinib)]	–	11.2	–
Cc1ccc(O)c([C@H](CCN(C(C)C)C(C)C)c2ccccc2)c1 [Tolterodine tartrate (Detrol LA)]	–	2.2	–
CCC(=O)N1CCN(c2ccc(-n3c(=O)ccc4cnc5ccc(-c6cnc7ccccc7c6)cc5c43)cc2C(F)(F)F)CC1 [Torin 1]	–	17.8	–
Nc1ccc(-c2ccc3ncc4ccc(=O)n(-c5cccc(C(F)(F)F)c5)c4c3c2)cn1 [Torin 2]	–	25.1	–
CCC(COC(=O)c1cc(OC)c(OC)c(OC)c1)(c1ccccc1)N(C)C (centres unmarked) [Trimebutine]	1.4	–	–
CN1CCc2c(c3ccccc3n2Cc2ccc(C(=O)NO)cc2)C1 [Tubastatin A HCl]	–	2.3	–
O=C(Nc1ccc(S(=O)(=O)Nc2ccccc2Cl)c(Cl)c1)c1ccccn1 [VU 0364439]	–	-0.9	–
CC(C)(CO)c1cc2cc(NC(=O)C3(c4ccc5c(c4)OC(F)(F)O5)CC3)c(F)cc2n1C[C@@H](O)CO [VX-661]	–	0.6	–
Cc1cc(Nc2cc(N3CCN(C)CC3)nc(Sc3ccc(NC(=O)C4CC4)cc3)n2)n[nH]1 [VX-680 (MK-0457, Tozasertib)]	70.7	–	viability at 72 h (in vitro; Host viability (%) mean): 34.7%
CC(C)[C@H](N)C(=O)OCCOCn1cnc2c(=O)[nH]c(N)nc21 [Valaciclovir HCl]	–	0.1	–
c1cnc2cc3c(cc2n1)C1CNCC3C1 [Varenicline tartrate]	0	–	–
CCCS(=O)(=O)Nc1ccc(F)c(C(=O)c2c[nH]c3ncc(-c4ccc(Cl)cc4)cc23)c1F [Vemurafenib (PLX4032)]	0.5	–	–
N#C[C@@H]1CCCN1C(=O)CNC12CC3CC(CC(O)(C3)C1)C2 [Vildagliptin (LAF-237)]	–	-11.7	–
C=CC(=O)Nc1cccc(Sc2nc(Nc3ccc(N4CCN(C)CC4)cc3)ncc2Cl)c1 [WZ8040]	–	–	inhibition of growth at 5 µM [1, 4]: 2.8%
Oc1nc(-c2ccc(C(F)(F)F)cc2)nc2c1CSCC2 [XAV-939]	-38.8	–	–
O=C[C@H](O)[C@@H](O)[C@H](O)CO [Xylose]	–	-51.2	–
C[C@@H](N)[C@H]1CC[C@H](C(=O)Nc2ccncc2)CC1 [Y-27632 2HCl]	-4.8	–	–
CC(C(=O)O)c1ccc2c(c1)CC(=O)c1ccccc1S2 (centres unmarked) [Zaltoprofen]	–	3.3	–
O=C1Cc2cc(CCN3CCN(c4nsc5ccccc45)CC3)c(Cl)cc2N1 [Ziprasidone hydrochloride]	–	33.7	–
